SMILES strings stand for the structures.

Here are results for two molecules from patent US8338598B2, “Herbicidal pyrido[2,3-B]pyrazines and their use as herbicides” (Syngenta Limited, priority 2008, dated 2012).

What all share (format): in vivo
Test [1] deals with test plants. Kind of test: Example B2 herbicidal action, pre-emergence, overall statement on the test plants. The settings on record: Example B2 protocol, rate not stated, result in words. On the procedure:
(§1) Seeds of a variety of test species were sown in standard soil in pots. After cultivation for one day (pre-emergence) or after 8 days cultivation (post-emergence) under controlled conditions in a glasshouse (at 24/16° C., day/night; 14 hours light; 65% humidity), the plants were sprayed with an aqueous spray solution derived from the formulation of the technical active ingredient in acetone/water (50:50) solution containing 0.5% Tween 20 (polyoxyethelyene sorbitan monolaurate, CAS RN 9005-64-5). The test plants were then grown in a glasshouse under controlled conditions in a glasshouse (at 24/16° C., day/night; 14 hours light; 65% humidity) and watered twice daily. After 13 days, the test was evaluated (10=total damage to plant; 0=no damage to plant).

Test [2] has as its system test plants. Kind of test: Example B2 herbicidal action, post-emergence, overall statement on the test plants. To be noted: Example B2 protocol, rate not stated, result in words. Here is the method: as §1
Another test deals with Amaranthus retroflexus. Briefly: Example B2 herbicidal action, post-emergence, pots in glasshouse. The settings on record: 250 g/ha, evaluated after 13 days, 10=total damage to plant, 0=no damage to plant. An outline of the steps: (§2)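 Compound applied as aqueous spray from acetone/water (50:50) with 0.5% Tween 20 onto soil pots, one day after sowing (pre-emergence) or eight days after (post-emergence). Scoring at 13 days: 0 = no damage, 10 = total damage.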

For another test, the system named is Echinochloa crus-galli. The test is described as above. To be noted: 250 g/ha, evaluated after 13 days, 10=total damage to plant, 0=no damage to plant. An outline of the steps: as §2
A further test relates to Ipomea hederaceae. The description is as above. To be noted: 250 g/ha, evaluated after 13 days, 10=total damage to plant, 0=no damage to plant. An outline of the steps:
as §2

The test system of another test is Setaria faberi. The test is described as above. To be noted: 250 g/ha, evaluated after 13 days, 10=total damage to plant, 0=no damage to plant. An outline of the steps: as §2
A further test concerns Solanum nigrum. The description is as above. The settings on record: 250 g/ha, evaluated after 13 days, 10=total damage to plant, 0=no damage to plant. An outline of the steps:
as §2

With `Cc1nc2cc(-c3c(OC(=O)C(C)(C)C)c4nccnc4[nH]c3=O)ccc2o1` [Compound C5], the “damage to the test plants” value in the test with test plants [1] and in the test with test plants [2] was “little or no damage” throughout.

Turning to `Cn1c(=O)c(-c2ccc(Cl)nc2Cl)c(OC(=O)C(C)(C)C)c2nccnc21` [Compound A15, 2,2-Dimethyl-propionic acid 7-(2,6-dichloro-pyrid-3-yl)-5-methyl-6-oxo-5,6-dihydro-pyrido[2,3-b]pyrazin-8-yl ester], the “damage to the test plants” value with test plants [1] is “little or no damage”. Moreover, in the test with Amaranthus retroflexus, the “AMARE, damage to plant” value came out at 2. Moreover, in the test on Echinochloa crus-galli, the “ECHCG, damage to plant” value was 3. In the test on Ipomea hederaceae, the “IPOHE, damage to plant” value turned out to be 4. For the same molecule, the “SETFA, damage to plant” value with Setaria faberi is reported as 0. Besides, the “SOLNI, damage to plant” value in the test with Solanum nigrum is 4.
